In ChEMBL document CHEMBL1201862, “PubChem BioAssay data set” (2004):
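Briefly, cells in 96-well plates were exposed to five compound concentrations for 48 h, and endpoints were estimated by linear interpolation. GI50: concentration for 50% inhibition of growth.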 The source made the active and inactive calls. Cut-off read from the data, not from the text of the source: active = GI50 up to about 1.1 µM and inactive = higher.

How the values were obtained:
Experiment in all cases: inhibition of tumour cell growth, NCI panel, 48 h
CCRF-CEM = tested on: CCRF-CEM
SN12C = tested on: SN12C
HOP-62 = tested on: HOP-62
ACHN = tested on: ACHN
U-251 = tested on: U-251
UACC-62 = tested on: UACC-62
NCI-H226 = tested on: NCI-H226
IGROV-1 = tested on: IGROV-1
LOX IMVI = tested on: LOX IMVI
NCI-H23 = tested on: NCI-H23
RPMI-8226 = tested on: RPMI-8226
RXF 393 = tested on: RXF 393
A549 = tested on: A549
A498 = tested on: A498
SK-MEL-2 = tested on: SK-MEL-2
TK-10 = tested on: TK-10
OVCAR-8 = tested on: OVCAR-8
M14 = tested on: M14
HOP-92 = tested on: HOP-92
NCI-H522 = tested on: NCI-H522

Measured: GI50

C=CC(OCC)(OCC)OCC
inactive: CCRF-CEM > 100 µM | SN12C > 100 µM | HOP-62 > 100 µM | ACHN > 100 µM | U-251 > 100 µM | UACC-62 > 100 µM | NCI-H226 > 100 µM | IGROV-1 > 100 µM | LOX IMVI 66.2 µM | NCI-H23 > 100 µM | RPMI-8226 61.1 µM | RXF 393 > 100 µM | A549 > 100 µM | A498 > 100 µM | SK-MEL-2 > 100 µM | TK-10 > 100 µM | OVCAR-8 > 100 µM | M14 > 100 µM | HOP-92 > 100 µM | NCI-H522 > 100 µM

CCOC(=O)CNC(=O)N(CC)C12CC3CC(CC(C3)C1)C2
inactive: CCRF-CEM 135 µM | SN12C 147 µM | HOP-62 128 µM | U-251 119 µM | UACC-62 97.5 µM | NCI-H226 146 µM | IGROV-1 184 µM | LOX IMVI 115 µM | NCI-H23 159 µM | RPMI-8226 115 µM | RXF 393 152 µM | A549 166 µM | A498 115 µM | SK-MEL-2 103 µM | OVCAR-8 150 µM | HOP-92 60.1 µM | NCI-H522 123 µM

NC(=S)N/N=C/c1ccc(OC(=O)COc2ccccc2Cl)cn1
inactive: CCRF-CEM 6.1 µM | SN12C 30.5 µM | HOP-62 20.5 µM | U-251 25.1 µM | UACC-62 14.6 µM | NCI-H226 26.5 µM | IGROV-1 > 93.1 µM | LOX IMVI 27.6 µM | NCI-H23 12.9 µM | RPMI-8226 46.3 µM | RXF 393 > 37.5 µM | A549 53.6 µM | A498 > 72.8 µM | SK-MEL-2 42.3 µM | OVCAR-8 15.7 µM | HOP-92 12.9 µM | NCI-H522 18.1 µM

CC1=C(C(=O)N[C@@H](CC(C)C)C(=O)O)N2C(=O)[C@@H](NC(=O)C(N)c3ccccc3)[C@H]2SC1 (some centres not stated)
inactive: CCRF-CEM > 100 µM | SN12C > 100 µM | ACHN > 100 µM | U-251 > 100 µM | UACC-62 79.3 µM | NCI-H226 60.4 µM | IGROV-1 > 100 µM | LOX IMVI > 100 µM | RPMI-8226 > 100 µM | RXF 393 > 100 µM | A549 > 100 µM | A498 > 100 µM | SK-MEL-2 > 100 µM | TK-10 > 100 µM | OVCAR-8 > 100 µM | M14 > 100 µM | HOP-92 > 100 µM | NCI-H522 > 100 µM

O=C1OC(=O)C2C1C(c1ccccc1[N+](=O)[O-])C=C(c1ccco1)N2c1ccncc1 (configuration not stated)
inactive: CCRF-CEM 2.29 µM | SN12C 8.95 µM | HOP-62 15.3 µM | ACHN 1.85 µM | U-251 3.94 µM | UACC-62 16.9 µM | NCI-H226 12.8 µM | IGROV-1 2.09 µM | LOX IMVI 1.87 µM | NCI-H23 11.3 µM | RPMI-8226 1.87 µM | RXF 393 4.67 µM | A549 13.6 µM | A498 12.2 µM | SK-MEL-2 13.9 µM | TK-10 3.82 µM | OVCAR-8 10.7 µM | M14 6.84 µM | HOP-92 3.68 µM | NCI-H522 2.28 µM

CCC/C=C/C=C\C(=O)O[C@@H]1[C@@H](C)[C@]2(O)[C@@H]3C=C(C)C(=O)[C@H]3CC(COC(C)=O)=C[C@H]2[C@@H]2C(C)(C)[C@]12OC(C)=O
inactive: CCRF-CEM 3.56 µM | SN12C 40.3 µM | HOP-62 1.89 µM | U-251 17.6 µM | UACC-62 35.2 µM | NCI-H226 46.6 µM | IGROV-1 48.4 µM | LOX IMVI 16.8 µM | NCI-H23 33.7 µM | RPMI-8226 22.9 µM | RXF 393 47.5 µM | A549 4.59 µM | A498 1.99 µM | SK-MEL-2 43.3 µM | OVCAR-8 40.7 µM | HOP-92 43.8 µM | NCI-H522 27.7 µM

CSc1sc(=S)sc1SC
inactive: CCRF-CEM > 100 µM | SN12C > 100 µM | HOP-62 > 100 µM | U-251 > 100 µM | UACC-62 > 100 µM | NCI-H226 > 100 µM | IGROV-1 > 100 µM | LOX IMVI > 100 µM | NCI-H23 > 100 µM | RPMI-8226 > 100 µM | RXF 393 > 100 µM | A549 > 100 µM | A498 > 100 µM | SK-MEL-2 > 31.6 µM | OVCAR-8 > 100 µM | HOP-92 > 100 µM | NCI-H522 > 100 µM

COC(=O)C1=CC[C@@H]2C(C(=O)O)=CO[C@@H](OC3OC(CO)C(O)C(O)C3O)[C@H]12 (some centres not stated)
inactive: CCRF-CEM > 119 µM | SN12C > 300 µM | HOP-62 > 300 µM | U-251 > 300 µM | UACC-62 > 300 µM | NCI-H226 299 µM | IGROV-1 > 300 µM | LOX IMVI > 300 µM | NCI-H23 > 300 µM | RPMI-8226 > 300 µM | RXF 393 > 300 µM | A549 > 300 µM | A498 > 30 µM | SK-MEL-2 > 300 µM | OVCAR-8 > 300 µM | HOP-92 > 110 µM | NCI-H522 > 300 µM

CCC1OC(=O)C(C)C(OC2CC(C)(O)C(O)C(C)O2)C(C)C(O)C(C)(O)CC(C)C(=O)C(C)C(O)C1C (configuration not stated)
inactive: CCRF-CEM > 300 µM | SN12C > 300 µM | HOP-62 299 µM | U-251 > 300 µM | UACC-62 > 300 µM | NCI-H226 > 300 µM | IGROV-1 > 300 µM | LOX IMVI > 300 µM | NCI-H23 > 300 µM | RPMI-8226 > 300 µM | RXF 393 > 300 µM | A549 > 300 µM | A498 > 267 µM | SK-MEL-2 > 300 µM | OVCAR-8 > 300 µM | HOP-92 30 µM | NCI-H522 > 300 µM

O=C1Nc2ccc(S(=O)(=O)N(CCO)CCO)cc2/C1=C1/Nc2ccccc2C1=O
inactive: CCRF-CEM > 100 µM | SN12C > 100 µM | HOP-62 > 100 µM | ACHN > 100 µM | U-251 96.6 µM | UACC-62 > 100 µM | NCI-H226 > 100 µM | IGROV-1 2.5 µM | LOX IMVI > 100 µM | NCI-H23 > 100 µM | RPMI-8226 > 100 µM | RXF 393 1.56 µM | A549 > 100 µM | A498 > 100 µM | SK-MEL-2 > 100 µM | TK-10 > 100 µM | OVCAR-8 > 100 µM | M14 > 100 µM | HOP-92 > 100 µM | NCI-H522 > 100 µM

C=C1C(=O)OC2CC(C)C3C4OC4C(O)C3(C)C(O)C12 (configuration not stated)
inactive: CCRF-CEM 12 µM | SN12C 23 µM | HOP-62 68.9 µM | U-251 43.2 µM | UACC-62 12.6 µM | NCI-H226 30 µM | IGROV-1 18.6 µM | LOX IMVI 14 µM | NCI-H23 14.4 µM | RPMI-8226 13.7 µM | RXF 393 22.1 µM | A549 53.5 µM | A498 16 µM | SK-MEL-2 25.9 µM | OVCAR-8 28.4 µM | HOP-92 23.6 µM | NCI-H522 9.42 µM

N=C(N)C1CN(CCCCCCCCCCN2CC(C(=N)N)C(O)=NC2=O)C(=O)N=C1O (configuration not stated)
inactive: CCRF-CEM > 10 µM | SN12C > 10 µM | HOP-62 > 10 µM | ACHN > 10 µM | U-251 > 10 µM | UACC-62 > 10 µM | NCI-H226 > 10 µM | IGROV-1 > 10 µM | LOX IMVI > 10 µM | NCI-H23 > 10 µM | RPMI-8226 > 10 µM | RXF 393 > 10 µM | A549 > 10 µM | A498 > 10 µM | SK-MEL-2 > 10 µM | TK-10 > 10 µM | OVCAR-8 > 10 µM | M14 > 10 µM | HOP-92 > 10 µM | NCI-H522 > 10 µM
